Assay results published in patent publication US20260297085A1, “1 H-PYRROLO[2,3-B]PYRIDIN-4-YL]-2-OXOPYRROLIDINE-3-CARBONITRILE DERIVATIVES AS TYROSINE KINASE 2 (TYK2) INHIBITORS FOR THE TREATMENT OF INFLAMMATORY DISEASES” (BIOGEN MA INC., priority 2023, published 2026).
Counter-ions that a name gives are not always drawn.

Tests used:
[1] = molecular target: T1, human TYK2 kinase domain (JH1) (Homo sapiens, UniProt P29597); experiment: JH1 biochemical assay for TYK2 (ADP-Glo kinase assay, recombinant JH1 catalytic domain, JAK3-974 peptide, 10 μM ATP)
T1 construct: recombinantly generated catalytic kinase (also known as JH1) domain of human JAK1, JAK2, JAK3 and TYK2
T1 sequence (P29597 897-1176 limits assumed): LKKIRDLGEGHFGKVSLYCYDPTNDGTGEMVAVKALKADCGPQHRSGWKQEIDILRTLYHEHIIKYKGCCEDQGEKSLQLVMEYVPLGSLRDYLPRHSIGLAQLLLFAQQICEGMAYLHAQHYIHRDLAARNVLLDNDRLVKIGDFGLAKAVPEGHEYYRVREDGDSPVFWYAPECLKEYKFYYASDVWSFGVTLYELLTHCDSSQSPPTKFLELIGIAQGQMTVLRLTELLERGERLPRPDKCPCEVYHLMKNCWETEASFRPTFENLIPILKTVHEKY
Outline: (§1)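 ADP-Glo luminescence with 50 μM peptide and 100 min reactions: JAK1 4 nM with JAK3-342 peptide; JAK2, JAK3 and TYK2 at 0.2, 0.3 and 2 nM with JAK3-974 peptide. Compounds tested from 10 or 1 μM top, 11 points, 3-fold. IC50 from a 4-parameter logistic fit of normalized activity.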

[2] = molecular target: T2, human JAK1 kinase domain (JH1) (Homo sapiens, UniProt P23458); experiment: JH1 biochemical assay for JAK1 (ADP-Glo kinase assay, recombinant JH1 catalytic domain, JAK3-342 peptide, 35 μM ATP)
T2 construct: recombinantly generated catalytic kinase (also known as JH1) domain of human JAK1, JAK2, JAK3 and TYK2
T2 sequence (P23458 875-1153 limits assumed): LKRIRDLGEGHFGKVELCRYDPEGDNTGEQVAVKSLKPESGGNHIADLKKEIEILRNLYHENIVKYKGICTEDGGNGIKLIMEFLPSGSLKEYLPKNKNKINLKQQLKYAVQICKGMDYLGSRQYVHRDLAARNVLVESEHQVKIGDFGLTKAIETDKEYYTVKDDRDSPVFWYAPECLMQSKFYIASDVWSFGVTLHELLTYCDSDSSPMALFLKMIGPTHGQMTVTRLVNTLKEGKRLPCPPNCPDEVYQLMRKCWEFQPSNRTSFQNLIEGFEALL
Outline: as §1

[3] = molecular target: T3, human JAK2 kinase domain (JH1) (Homo sapiens, UniProt O60674); experiment: JH1 biochemical assay for JAK2 (ADP-Glo kinase assay, recombinant JH1 catalytic domain, JAK3-974 peptide, 15 μM ATP)
T3 construct: recombinantly generated catalytic kinase (also known as JH1) domain of human JAK1, JAK2, JAK3 and TYK2
T3 sequence (O60674 849-1124 limits assumed): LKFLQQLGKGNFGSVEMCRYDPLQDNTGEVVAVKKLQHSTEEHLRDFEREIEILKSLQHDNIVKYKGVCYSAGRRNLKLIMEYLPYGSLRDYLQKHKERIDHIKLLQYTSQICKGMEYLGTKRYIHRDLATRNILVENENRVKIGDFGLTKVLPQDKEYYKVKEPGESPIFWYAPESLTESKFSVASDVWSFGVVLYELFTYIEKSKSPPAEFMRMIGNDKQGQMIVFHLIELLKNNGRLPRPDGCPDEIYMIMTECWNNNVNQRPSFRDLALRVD
Outline: as §1

[4] = molecular target: T4, human JAK3 kinase domain (JH1) (Homo sapiens, UniProt P52333); experiment: JH1 biochemical assay for JAK3 (ADP-Glo kinase assay, recombinant JH1 catalytic domain, JAK3-974 peptide, 4 μM ATP)
T4 construct: recombinantly generated catalytic kinase (also known as JH1) domain of human JAK1, JAK2, JAK3 and TYK2
T4 sequence (P52333 822-1111 limits assumed): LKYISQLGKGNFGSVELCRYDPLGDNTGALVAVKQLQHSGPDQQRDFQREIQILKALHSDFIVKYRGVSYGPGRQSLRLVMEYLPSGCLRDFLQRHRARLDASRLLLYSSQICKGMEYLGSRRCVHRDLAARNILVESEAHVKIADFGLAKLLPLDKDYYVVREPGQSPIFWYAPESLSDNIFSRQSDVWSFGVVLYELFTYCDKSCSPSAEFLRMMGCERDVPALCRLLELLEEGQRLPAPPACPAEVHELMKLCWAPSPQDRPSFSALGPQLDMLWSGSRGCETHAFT
Outline: as §1

[5] = molecular target: Tyk2 kinase activity on STAT4 in NK92 cells (Homo sapiens, UniProt P29597); experiment: pSTAT4 cell assay (MSD; NK92 cells, 30 ng/mL IL2 stimulation); type: cell-based; conditions: 30 ng/mL IL2, 15 minutes
Sequence of Tyk2 kinase activity on STAT4 in NK92 cells (P29597 whole entry): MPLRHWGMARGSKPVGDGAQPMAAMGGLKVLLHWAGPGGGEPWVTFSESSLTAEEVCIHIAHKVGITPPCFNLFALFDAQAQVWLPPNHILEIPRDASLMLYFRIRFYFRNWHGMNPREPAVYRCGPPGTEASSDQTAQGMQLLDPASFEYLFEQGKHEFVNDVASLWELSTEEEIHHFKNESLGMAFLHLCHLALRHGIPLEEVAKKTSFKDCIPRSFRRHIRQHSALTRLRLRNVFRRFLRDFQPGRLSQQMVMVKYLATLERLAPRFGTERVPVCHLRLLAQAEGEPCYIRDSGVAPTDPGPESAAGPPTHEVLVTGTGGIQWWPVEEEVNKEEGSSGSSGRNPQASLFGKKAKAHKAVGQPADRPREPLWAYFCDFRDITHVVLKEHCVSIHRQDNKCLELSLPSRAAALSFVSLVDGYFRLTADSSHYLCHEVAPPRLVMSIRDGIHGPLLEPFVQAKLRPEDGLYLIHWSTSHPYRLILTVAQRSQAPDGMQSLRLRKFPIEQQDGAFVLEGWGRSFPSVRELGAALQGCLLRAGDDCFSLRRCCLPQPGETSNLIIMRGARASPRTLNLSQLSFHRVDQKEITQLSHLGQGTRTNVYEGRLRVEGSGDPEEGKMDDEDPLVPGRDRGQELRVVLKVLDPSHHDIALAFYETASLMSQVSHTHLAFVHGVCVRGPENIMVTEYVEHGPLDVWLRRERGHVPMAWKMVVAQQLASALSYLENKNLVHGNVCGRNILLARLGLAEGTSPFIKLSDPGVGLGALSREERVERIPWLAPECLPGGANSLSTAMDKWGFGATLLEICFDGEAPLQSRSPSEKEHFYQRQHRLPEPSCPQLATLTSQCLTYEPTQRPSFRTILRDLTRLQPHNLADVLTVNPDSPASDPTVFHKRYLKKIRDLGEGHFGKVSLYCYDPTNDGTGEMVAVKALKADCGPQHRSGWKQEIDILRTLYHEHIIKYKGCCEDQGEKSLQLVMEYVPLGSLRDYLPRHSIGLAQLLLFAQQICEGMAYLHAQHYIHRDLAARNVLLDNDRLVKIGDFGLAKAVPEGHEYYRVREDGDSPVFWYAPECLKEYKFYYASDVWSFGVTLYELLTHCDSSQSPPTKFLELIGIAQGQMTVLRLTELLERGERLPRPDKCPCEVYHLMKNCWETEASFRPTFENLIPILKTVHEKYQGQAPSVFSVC
Protocol: The inhibitory potency of compounds of the disclosure against the Tyk2 kinase activity on STAT4 was evaluated using an MSD-platform plate-based assay format. NK92 cells natively expressing STAT4 and Tyk2 were serum-starved to reduce background phosphorylation levels, then cells were treated compounds for 1 hr with a 10-point four-fold dilution series starting at 10 μM. Cells were then stimulated with 30 ng/mL IL2 for 15 minutes. Cells were lysed and […] levels were quantitated using an MSD plate-based assay with anti-STAT4 antibodies. The data were normalized and the percent activity versus log concentration of compound were fitted with a 4-parameter logistic model to generate to generate IC50 curves.

Structure (SMILES)	IC50 ([1]; TYK2 JH1, ADP-Glo)	IC50 ([2]; JAK1 JH1, ADP-Glo)	IC50 ([3]; JAK2 JH1, ADP-Glo)	IC50 ([4]; JAK3 JH1, ADP-Glo)	IC50 [5]	IC50 ([1]; JH1 kinase domain, ADP-Glo)	IC50 ([2]; JH1 kinase domain, ADP-Glo)	IC50 ([3]; JH1 kinase domain, ADP-Glo)	IC50 ([4]; JH1 kinase domain, ADP-Glo)
COCc1cnn(-c2cc3c(N4C[C@@H](C)[C@@](C#N)(C5CC5)C4=O)ccnn3c2)c1 [Example 337, (3R,4S)-3-cyclopropyl-1-(6-(4-(methoxymethyl)-1H-pyrazol-1-yl)pyrrolo[1,2-b]pyridazin-4-yl)-4-methyl-2-oxopyrrolidine-3-carbonitrile]	20 to 50 nM	100 to 1000 nM	100 to 1000 nM	100 to 1000 nM	> 100 nM				
COc1ccc(-c2cn3nccc3c(N3C[C@@H](C)[C@@](C#N)(C4CC4)C3=O)n2)nc1 [Example 213, (3R,4S)-3-cyclopropyl-1-(6-(5-methoxypyridin-2-yl)pyrazolo[1,5-a]pyrazin-4-yl)-4-methyl-2-oxopyrrolidine-3-carbonitrile]					> 100 nM	5 to 20 nM	< 100 nM	1000 to 5000 nM	100 to 1000 nM
C[C@@H]1CN(c2nc(-c3ccc(N(C)C(=O)OC(C)(C)C)nc3)cn3nccc23)C(=O)[C@]1(C#N)C1CC1 [Example 266, tert-butyl (5-(4-((3R,4S)-3-cyano-3-cyclopropyl-4-methyl-2-oxopyrrolidin-1-yl)pyrazolo[1,5-a]pyrazin-6-yl)pyridin-2-yl)(methyl)carbamate trifluoroacetate]	< 5 nM	< 100 nM	< 100 nM	< 100 nM	50 to 100 nM				
CC(C)[C@@]1(C#N)C(=O)N(c2nc(-c3cnn(C)c3)cn3ncc(F)c23)C[C@H]1C [Example 310, (3R,4S)-1-(3-fluoro-6-(1-methyl-1H-pyrazol-4-yl)pyrazolo[1,5-a]pyrazin-4-yl)-3-isopropyl-4-methyl-2-oxopyrrolidine-3-carbonitrile]	5 to 20 nM	100 to 1000 nM	100 to 1000 nM	< 100 nM	> 100 nM				
C[C@@H]1CN(c2ccnn3cc(-n4cc(C5CN(C)CCO5)cn4)cc23)C(=O)[C@]1(C#N)C1CC1 (stereo partly drawn) [Example 317, (3R,4S)-3-cyclopropyl-4-methyl-1-(6-(4-(4-methylmorpholin-2-yl)-1H-pyrazol-1-yl)pyrrolo[1,2-b]pyridazin-4-yl)-2-oxopyrrolidine-3-carbonitrile]	20 to 50 nM	1000 to 5000 nM	100 to 1000 nM	100 to 1000 nM	> 100 nM				
C[C@@H]1CN(c2ccnn3cc(-n4cc(C(F)F)cn4)cc23)C(=O)[C@]1(C#N)C1CC1 [Example 338, (3R,4S)-3-cyclopropyl-1-(6-(4-(difluoromethyl)-1H-pyrazol-1-yl)pyrrolo[1,2-b]pyridazin-4-yl)-4-methyl-2-oxopyrrolidine-3-carbonitrile]	20 to 50 nM	1000 to 5000 nM	100 to 1000 nM	100 to 1000 nM	> 100 nM				
COc1cc(-c2cc3c(N4C[C@@H](C)[C@@](C#N)(C5CC5)C4=O)ccnn3c2)c(OC)nn1 [Example 98, (3R,4S)-3-cyclopropyl-1-(6-(3,6-dimethoxypyridazin-4-yl)pyrrolo[1,2-b]pyridazin-4-yl)-4-methyl-2-oxopyrrolidine-3-carbonitrile]						50 to 100 nM	1000 to 5000 nM	1000 to 5000 nM	5000 to 10000 nM
Cn1cc(-c2cc3c(N4CC[C@](C#N)(C5CC5)C4=O)ccnc3[nH]2)cn1 [Example 2, (R)-3-cyclopropyl-1-(2-(1-methyl-1H-pyrazol-4-yl)-1H-pyrrolo[2,3-b]pyridin-4-yl)-2-oxopyrrolidine-3-carbonitrile]						50 to 100 nM	100 to 1000 nM	100 to 1000 nM	1000 to 5000 nM
C[C@@H]1CN(c2cc(-c3cnn(C)c3)cc3nscc23)C(=O)[C@]1(C#N)C1CC1 [Example 351, (3R,4S)-3-cyclopropyl-4-methyl-1-(6-(1-methyl-1H-pyrazol-4-yl)benzo[c]isothiazol-4-yl)-2-oxopyrrolidine-3-carbonitrile]	20 to 50 nM	100 to 1000 nM	100 to 1000 nM	100 to 1000 nM					
COc1ncc(-c2cn3nccc3c(N3C[C@@H](C)[C@@](C#N)(C4CC4)C3=O)n2)cc1C#N [Example 262, 5-(4-((3R,4S)-3-cyano-3-cyclopropyl-4-methyl-2-oxopyrrolidin-1-yl)pyrazolo[1,5-a]pyrazin-6-yl)-2-methoxynicotinonitrile trifluoroacetate]	20 to 50 nM	> 10000 nM	> 10000 nM	> 10000 nM					
C[C@@H]1CN(c2ccnn3cc(-c4cnccn4)cc23)C(=O)[C@]1(C#N)C1CC1 [Example 151, (3R,4S)-3-cyclopropyl-4-methyl-2-oxo-1-(6-(pyrazin-2-yl)pyrrolo[1,2-b]pyridazin-4-yl)pyrrolidine-3-carbonitrile trifluoroacetate]						50 to 100 nM	1000 to 5000 nM	1000 to 5000 nM	1000 to 5000 nM
Cn1cc(-c2cc3c(N4C[C@H](C(F)F)[C@@](C#N)(C5CC5)C4=O)ccnn3c2)cn1 (racemic) [Example 152, rac-(3R,4R)-3-cyclopropyl-4-(difluoromethyl)-1-(6-(1-methyl-1H-pyrazol-4-yl)pyrrolo[1,2-b]pyridazin-4-yl)-2-oxopyrrolidine-3-carbonitrile]						> 100 nM	1000 to 5000 nM	1000 to 5000 nM	1000 to 5000 nM
C[C@@H]1CN(c2ccnn3cc(-c4cnc5cnccn45)cc23)C(=O)[C@]1(C#N)C1CC1 [Example 116, (3R,4S)-3-cyclopropyl-1-(6-(imidazo[1,2-a]pyrazin-3-yl)pyrrolo[1,2-b]pyridazin-4-yl)-4-methyl-2-oxopyrrolidine-3-carbonitrile trifluoroacetate]						20 to 50 nM	100 to 1000 nM	1000 to 5000 nM	100 to 1000 nM
C[C@@H]1CN(c2ccnn3cc(-c4cnn(C)c4)cc23)C(=O)[C@@]1(C#N)C1CC1 [Example 21, (3S,4S)-3-cyclopropyl-4-methyl-1-(6-(1-methyl-1H-pyrazol-4-yl)pyrrolo[1,2-b]pyridazin-4-yl)-2-oxopyrrolidine-3-carbonitrile]						> 100 nM	> 10000 nM	> 10000 nM	> 10000 nM
COc1cc(-c2cn3nccc3c(N3C[C@@H](C)[C@@](C#N)(C4CC4)C3=O)n2)c(OC)nn1 [Example 253, (3R,4S)-3-cyclopropyl-1-(6-(3,6-dimethoxypyridazin-4-yl)pyrazolo[1,5-a]pyrazin-4-yl)-4-methyl-2-oxopyrrolidine-3-carbonitrile trifluoroacetate]	20 to 50 nM	1000 to 5000 nM	> 10000 nM	5000 to 10000 nM					
COc1ncc(-c2cc3c(N4C[C@@H](C)[C@@](C#N)(C5CC5)C4=O)ccnn3c2)cc1C#N [Example 85, 5-(4-((3R,4S)-3-cyano-3-cyclopropyl-4-methyl-2-oxopyrrolidin-1-yl)pyrrolo[1,2-b]pyridazin-6-yl)-2-methoxynicotinonitrile]						20 to 50 nM	1000 to 5000 nM	1000 to 5000 nM	1000 to 5000 nM
Cc1ccc2nc(-c3cc4c(N5C[C@@H](C)[C@@](C#N)(C6CC6)C5=O)ccnn4c3)nn2c1 [Example 109, (3R,4S)-3-cyclopropyl-4-methyl-1-(6-(6-methyl-[1,2,4]triazolo[1,5-a]pyridin-2-yl)pyrrolo[1,2-b]pyridazin-4-yl)-2-oxopyrrolidine-3-carbonitrile trifluoroacetate]						50 to 100 nM	1000 to 5000 nM	5000 to 10000 nM	1000 to 5000 nM
C[C@@H]1CN(c2ccnn3cc(-c4nccc(O)c4C#N)cc23)C(=O)[C@]1(C#N)C1CC1 [Example 129, 2-(4-((3R,4S)-3-cyano-3-cyclopropyl-4-methyl-2-oxopyrrolidin-1-yl)pyrrolo[1,2-b]pyridazin-6-yl)-4-hydroxynicotinonitrile trifluoroacetate]						> 100 nM	> 10000 nM	> 10000 nM	> 10000 nM
CC[C@H]1C[C@](C#N)(C2CC2)C(=O)N1c1ccnn2cc(-c3cnn(C)c3)cc12 [Example 32, (3R,5S)-3-cyclopropyl-5-ethyl-1-(6-(1-methyl-1H-pyrazol-4-yl)pyrrolo[1,2-b]pyridazin-4-yl)-2-oxopyrrolidine-3-carbonitrile]						> 100 nM	> 10000 nM	> 10000 nM	> 10000 nM
CC[C@@H]1C[C@@](C#N)(C2CC2)C(=O)N1c1ccnn2cc(-c3cnn(C)c3)cc12 [Example 18, (3S,5R)-3-cyclopropyl-5-ethyl-1-(6-(1-methyl-1H-pyrazol-4-yl)pyrrolo[1,2-b]pyridazin-4-yl)-2-oxopyrrolidine-3-carbonitrile]						> 100 nM	1000 to 5000 nM	100 to 1000 nM	1000 to 5000 nM
